Experimental data: PubChem BioAssay (NCI)
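Values below derive from 48-hour exposures of cells grown in 96-well plates, with endpoints linearly interpolated between the two concentrations bracketing the appropriate inhibition level. Definition used: TGI = concentration required for complete inhibition of growth.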

Key:
Assay in all cases: growth of human tumour cells (NCI), 48 h
K-562 leukemia = system: K-562 leukemia
HOP-92 NSCLC = system: HOP-92 NSCLC
RPMI-8226 leukemia = system: RPMI-8226 leukemia
HT29 colon = system: HT29 colon
NCI-H522 lung = system: NCI-H522 lung
SNB-75 CNS = system: SNB-75 CNS
786-0 renal = system: 786-0 renal
NCI-H226 lung = system: NCI-H226 lung
A498 renal = system: A498 renal
DU-145 prostate = system: DU-145 prostate

| Structure (SMILES) | TGI (K-562 leukemia) [µM] | TGI (HOP-92 NSCLC) [µM] | TGI (RPMI-8226 leukemia) [µM] | TGI (HT29 colon) [µM] | TGI (NCI-H522 lung) [µM] | TGI (SNB-75 CNS) [µM] | TGI (786-0 renal) [µM] | TGI (NCI-H226 lung) [µM] | TGI (A498 renal) [µM] | TGI (DU-145 prostate) [µM] |
| --- | --- | --- | --- | --- | --- | --- | --- | --- | --- | --- |
| C[Si](C)(C)c1ccc(-c2sc(-c3ccc([Si](C)(C)C)s3)c3c2C[Si]2(C3)Cc3c(-c4ccc([Si](C)(C)C)s4)sc(-c4ccc([Si](C)(C)C)s4)c3C2)s1 | > 100 | > 100 | > 100 | > 100 | > 100 | > 100 | > 100 | > 100 |  |  |
| CCc1cccc(C)c1NC(=O)C(=O)Cc1nc2ccccc2s1 | > 100 | 5.88 |  | > 100 | > 100 | > 100 | > 100 | > 100 | > 100 |  |
| CN(/N=C/c1cccc2cccnc12)c1ccccc1 | > 100 | > 100 | > 100 | > 100 | > 100 | > 100 | > 100 | > 100 | > 100 |  |
| COc1ccc2ccccc2c1C1OC(=O)c2ccccc21 (stereo not given) | > 100 | > 100 | > 100 | > 100 | > 100 |  | > 100 | > 100 | > 100 |  |
| C1=C2/CC[C@H](Sc3ccccc3)[C@H]2C2(CCCCC/1)OCCO2 | > 100 | 59.1 | 83.1 | > 100 | 39.6 | > 100 | > 100 |  |  |  |
| O=S1(=O)OCCOS(=O)(=O)C1Cc1ccccc1 | > 100 | > 100 | 69.2 | > 100 | > 100 | > 100 | > 100 | > 100 | > 100 |  |
| COc1ccc(C(C#N)Cc2cc(OC)c(OC)c(OC)c2)cc1 (stereo not given) | > 100 | > 100 | > 100 | > 100 | 71.9 |  | > 100 | > 100 | 73.1 |  |
| Cc1ccc(C)c(NC(=O)CC/C(=N\NC(=O)c2c(O)ccc3ccccc23)C(C)C(=O)c2ccc(O)cc2)c1 (stereo not given) | > 100 | > 100 | > 100 | > 100 | 42.6 | > 100 | > 100 | 98.8 | > 100 |  |
| COC(=O)C1=C(c2cc(OC)c(OC)c(OC)c2)OC(c2ccc(OC)c(OC)c2)C1 (stereo not given) | > 100 | > 100 | > 100 | > 100 |  | > 100 | > 100 | > 100 | 69.3 |  |
| C[C@]12CCC3[C@@H](CC[C@@H]4c5nonc5CC[C@]34C)C1C/C(=N/O)C2=O (stereo not given in full) | > 100 | > 100 | > 100 | > 100 | > 100 | 2.98 | > 100 | > 100 | > 100 |  |
| CN(C(=O)c1ccco1)C(=S)N1CCN(c2ccccc2)CC1 | > 100 | > 100 | > 100 | > 100 | > 100 | > 100 | > 100 | > 100 |  |  |
| CC#CC(=O)SCCNC(=O)CC | > 10 |  | > 10 | > 10 | 3.14 | > 10 | > 10 | > 10 | > 10 | > 10 |
